Assay results as given in patent EP0403963A2, “Anthracycline derivatives, process for their preparation and their use as medicaments” (priority 1989, dated 1990).
Converted amounts (≈) assume the structure as drawn. Where two headings read alike, the source gives them in different places.

How the values were obtained:
[1] = Qualitative solubility of the isolated substance; type: physicochemical; conditions: solvents: Methanol, Ethylacetat, Chloroform, Wasser, Hexan
L1210 Leukämiezellen = assay: Proliferation test (MTT), continuous incubation; type: cell-based, Maus; conditions: for IC50: Mus musculus, read-out: Zytotoxizität (Dauerinkubation) IC50
Procedure: Kontrollen bestehen aus Zellen, die lediglich mit frischem Medium inkubiert werden. Alle Bestimmungen werden als 4-fache Bestimmung durchgeführt. Nach 65 Stunden werden 50 ul MTT (3-(4,5-Dimethylthiazol-2-yl)-2,5-diphenyl-tetrazoliumbromid, 2,5 mg/mi in PBS) zugegeben. MTT wird durch lebende Zellen zu einem […], unlöslichen Formazan-Farbstoff reduziert. Nach einer weiteren 7-stündigen Inkubation wird das überstehende Medium vorsichtig abgesaugt. Der Formazan-Farbstoff wird durch Zugabe von jeweils 100 ul DMSO in die Vertiefungen der Mikrotiterplatte und vorsichtiges Schütteln gelöst. Die Extinktion der jeweiligen Lösung wird mit Hilfe eines Multiscan Photometers 340 CC, Fa. Flow, bei 492 nm gemessen.

[2] = Acute toxicity, intravenous injection; type: in vivo, Mäusen; conditions: mouse, in vivo, iv; i.v. on day 0, 3 and 6; survivors counted on day 20; 2 mice per dose; read-out: akute Toxizität LD50
Procedure: (§1) Zur Ermittlung der akuten Toxizität wurden BDFi-Mäusen am Tag 0, Tag 3 und Tag 6 unterschiedliche Dosen der Testsubstanz, gelöst in 0,4 ml physiologischer Kochsalzlösung, intravenös injiziert. Kontrollgruppen erhielten lediglich 0,4 ml physiologischer Kochsalzlösung. Pro Konzentration der Testsubstanz wurden 2 Mäuse verwendet. Am Tag 20 wurde die Zahl der überlebenden Mäuse und daraus die LD50 ermittelt. Die Toxizität der hier beschriebenen Verbindungen im Vergleich zu Adriamycin ist in Tabelle 1 zusammengefaßt.

BDFi-Mäusen = assay: Acute toxicity, intravenous injection; type: in vivo; conditions: i.v. on day 0, 3 and 6; survivors counted on day 20; 2 mice per dose; 28800 min
Procedure: as §1

[3] = L1210 cells, 72 h incubation, MTT readout at 492 nm

| Compound | Löslichkeit [1] | IC50 (L1210 Leukämiezellen; [3]) | LD50 at 480 h [2] | Zytotoxizität (Dauerinkubation) IC50 (L1210 Leukämiezellen; [3]) | akute Toxizität LD50 (BDFi-Mäusen) | IC50 (L1210 Leukämiezellen; L1210, 72 h) |
| --- | --- | --- | --- | --- | --- | --- |
| CC[C@@]1(O[C@H]2C[C@H](N(C)C)[C@H](O)[C@H](C)O2)CCc2c(O)c3c(c(O)c2[C@H]1O[C@H]1C[C@H](N(C)C)[C@H](O)[C@H](C)O1)C(=O)c1cccc(O)c1C3=O [9-0,10-0-Bis (α-L-rhodosaminyl)-γ-rhodomycinon] | leicht löslich in Methanol, Ethylacetat, Chloroform, unlöslich in Wasser und Hexan | 0.35 µg/mL (≈ 0.511 µM) | 25 to 50 mg/kg | – | – | – |
| Cytorhodin Z | leicht löslich in Methanol, Ethylacetat, Chloroform, unlöslich in Wasser und Hexan | – | – | 0,33 µg/ml | 10 to 25 mg/kg | – |
| COc1cccc2c1C(=O)c1c(O)c3c(c(O)c1C2=O)C[C@@](O)(C(=O)CO)C[C@@H]3O[C@H]1C[C@H](N)[C@H](O)[C@H](C)O1 [Adriamycin, reference compound] | – | – | 10 mg/kg | – | – | 0.02 to 0.03 µg/mL (≈ 0.0368 to 0.0552 µM) |
